Measured values reported in patent US20180273538A1, “PYRROLO[2,3-d]PYRIMIDINE DERIVATIVES, A PROCESS FOR THEIR PREPARATION AND PHARMACEUTICAL COMPOSITIONS CONTAINING THEM” (LES LABORATOIRES SERVIER, priority 2015, published 2018).

Tests used:
DYRK1A = target: T1, DYRK1A (Homo sapiens, UniProt Q13627); experiment: Kinase TR-FRET assay, DYRK1A; assay type: biochemical
T1 construct: full-length human kinases from Carna Biosciences; purchased Carna Biosciences 04-130

[1] = target: T2, His-TEV-DYRK1A Kinase domain (aa127-485) (Homo sapiens, UniProt Q13627); experiment: Kinase ADP assay (ADP Hunter Plus); assay type: biochemical
T2 construct: His-TEV-DYRK1A Kinase domain (aa127-485); His (N); TEV cleavage site (N)

DYRK1B = target: T3, DYRK1B (Homo sapiens, UniProt Q9Y463); experiment: Kinase TR-FRET assay, DYRK1B; assay type: biochemical
T3 construct: full-length human kinases from Carna Biosciences; purchased Carna Biosciences 04-131
T3 sequence (Q9Y463 whole entry): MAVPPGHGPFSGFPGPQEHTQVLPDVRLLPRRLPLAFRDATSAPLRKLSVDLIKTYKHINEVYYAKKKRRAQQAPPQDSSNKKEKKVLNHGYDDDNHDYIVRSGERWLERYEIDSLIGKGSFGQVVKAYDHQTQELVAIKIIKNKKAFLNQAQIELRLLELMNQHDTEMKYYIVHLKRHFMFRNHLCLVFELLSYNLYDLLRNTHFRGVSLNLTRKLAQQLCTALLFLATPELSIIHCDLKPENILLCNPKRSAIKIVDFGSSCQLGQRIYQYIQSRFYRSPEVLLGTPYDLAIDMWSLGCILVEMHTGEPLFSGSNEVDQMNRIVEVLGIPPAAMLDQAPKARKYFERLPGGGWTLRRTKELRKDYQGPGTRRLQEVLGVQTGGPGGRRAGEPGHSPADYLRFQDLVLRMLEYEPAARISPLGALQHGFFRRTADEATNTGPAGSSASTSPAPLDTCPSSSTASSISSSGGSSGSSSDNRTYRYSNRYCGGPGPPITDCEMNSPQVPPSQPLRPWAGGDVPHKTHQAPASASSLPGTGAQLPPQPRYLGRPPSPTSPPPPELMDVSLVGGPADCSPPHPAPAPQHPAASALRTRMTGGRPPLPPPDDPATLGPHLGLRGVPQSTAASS

phospho-Ser520-DYRK1A = target: T4, phospho-Ser520-DYRK1A (Homo sapiens, UniProt Q13627); experiment: Cellular DYRK1A autophosphorylation assay in U2-OS cells; assay type: cell-based; conditions: 5 hours exposure, read-out: IC50 (μM) P-Ser520-Dyrk1A-Cell assay
T4 construct: full-length, wild-type human DYRK1A (NM_001396) with an HA tag; expressed in transfected cells; host or cells: human U2-OS osteosarcoma cells, pcDNA3.1 plasmid

CLK1 = target: T5, CLK1 (Homo sapiens, UniProt P49759); experiment: Kinase TR-FRET assay, CLK1; assay type: biochemical
T5 construct: full-length human kinases from Carna Biosciences; purchased Carna Biosciences 04-126
T5 sequence (P49759 1-526 isoform P49759-3): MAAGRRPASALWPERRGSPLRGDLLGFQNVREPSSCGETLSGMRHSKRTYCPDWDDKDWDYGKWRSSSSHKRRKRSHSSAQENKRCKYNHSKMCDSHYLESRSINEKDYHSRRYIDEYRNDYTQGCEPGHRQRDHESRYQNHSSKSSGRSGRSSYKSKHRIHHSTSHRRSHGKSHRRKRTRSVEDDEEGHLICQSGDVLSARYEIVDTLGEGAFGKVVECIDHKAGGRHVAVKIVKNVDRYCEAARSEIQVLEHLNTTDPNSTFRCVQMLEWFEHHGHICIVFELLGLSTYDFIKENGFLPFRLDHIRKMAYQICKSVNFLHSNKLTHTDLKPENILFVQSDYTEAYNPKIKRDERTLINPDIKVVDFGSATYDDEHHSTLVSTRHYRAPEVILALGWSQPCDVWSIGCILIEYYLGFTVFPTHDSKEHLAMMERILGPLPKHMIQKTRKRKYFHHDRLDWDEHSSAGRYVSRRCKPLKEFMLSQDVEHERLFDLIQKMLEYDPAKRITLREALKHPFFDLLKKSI

CDK9 = target: T6, CDK9 (Homo sapiens, UniProt P50750); experiment: Kinase TR-FRET assay, CDK9; assay type: biochemical
T6 construct: full-length human kinases from Carna Biosciences; purchased Carna Biosciences 04-110
T6 sequence (P50750 whole entry): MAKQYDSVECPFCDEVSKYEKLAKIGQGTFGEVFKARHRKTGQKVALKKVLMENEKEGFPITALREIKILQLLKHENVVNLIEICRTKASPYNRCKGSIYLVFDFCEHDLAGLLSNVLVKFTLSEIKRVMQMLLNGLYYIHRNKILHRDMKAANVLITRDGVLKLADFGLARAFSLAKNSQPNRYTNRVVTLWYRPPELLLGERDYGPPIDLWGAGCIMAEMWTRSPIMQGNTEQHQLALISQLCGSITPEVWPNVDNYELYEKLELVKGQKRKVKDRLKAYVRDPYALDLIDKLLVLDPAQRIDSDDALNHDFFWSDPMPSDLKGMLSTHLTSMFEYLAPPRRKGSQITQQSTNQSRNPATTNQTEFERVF
T6 sequence (O60563 whole entry partner): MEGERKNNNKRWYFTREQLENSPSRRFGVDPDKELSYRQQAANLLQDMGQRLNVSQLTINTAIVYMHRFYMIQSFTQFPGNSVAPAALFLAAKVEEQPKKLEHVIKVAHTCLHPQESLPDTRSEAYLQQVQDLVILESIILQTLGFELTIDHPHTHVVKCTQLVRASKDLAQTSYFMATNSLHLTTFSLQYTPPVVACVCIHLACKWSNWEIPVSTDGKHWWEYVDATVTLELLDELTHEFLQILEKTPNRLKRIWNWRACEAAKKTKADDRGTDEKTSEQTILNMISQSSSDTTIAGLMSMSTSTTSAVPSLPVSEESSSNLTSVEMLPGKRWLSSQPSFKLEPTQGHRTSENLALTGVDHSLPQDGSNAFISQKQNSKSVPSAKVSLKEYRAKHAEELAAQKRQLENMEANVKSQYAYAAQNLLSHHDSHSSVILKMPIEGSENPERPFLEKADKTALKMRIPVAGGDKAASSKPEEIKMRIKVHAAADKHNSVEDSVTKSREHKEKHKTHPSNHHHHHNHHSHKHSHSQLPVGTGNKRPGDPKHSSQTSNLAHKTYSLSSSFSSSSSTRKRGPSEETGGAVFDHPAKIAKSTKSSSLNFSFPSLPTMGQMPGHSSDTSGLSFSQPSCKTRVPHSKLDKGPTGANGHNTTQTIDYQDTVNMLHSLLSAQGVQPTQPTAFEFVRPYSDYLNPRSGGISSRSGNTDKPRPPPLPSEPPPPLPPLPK

| IC50 (DYRK1A) | IC50 [1] | IC50 (DYRK1B) | IC50 (phospho-Ser520-DYRK1A) | IC50 (CLK1) | IC50 (CDK9) | Structure (SMILES) |
| --- | --- | --- | --- | --- | --- | --- |
| 0.0149 µM | 0.011 µM | 0.0178 µM | 0.14 µM | 0.0328 µM | – | Cc1nc(OCc2cc(C)on2)c2c(-c3ccncc3)c[nH]c2n1 [Example 16, 2-methyl-4-[(5-methyl-1,2-oxazol-3-yl)methoxy]-5-(pyridin-4-yl)-7H-pyrrolo[2,3-d]pyrimidine] |
| 0.0114 µM | 0.012 µM | – | 0.0117 µM | – | 2.54 µM | Cc1nc(NCc2ccccc2C)c2c(-c3ccnc(N)c3)c[nH]c2n1 [Example 56, 5-(2-aminopyridin-4-yl)-2-methyl-N-(2-methylbenzyl)-7H-pyrrolo[2,3-d]pyrimidin-4-amine] |
| 0.0215 µM | 0.01 µM | 0.0175 µM | 0.0337 µM | 0.0245 µM | – | Cc1nc(NCc2c(C)cccc2Cl)c2c(-c3ccnc(N)c3)c[nH]c2n1 [Example 58, 5-(2-aminopyridin-4-yl)-N-(2-chloro-6-methylbenzyl)-2-methyl-7H-pyrrolo[2,3-d]pyrimidin-4-amine] |
| 0.0186 µM | 0.008 µM | 0.0002 µM | 0.021 µM | 0.0162 µM | – | Cc1nc(NCc2c(F)cccc2Cl)c2c(-c3ccnc(N)c3)c[nH]c2n1 [Example 62, 5-(2-aminopyridin-4-yl)-N-(2-chloro-6-fluorobenzyl)-2-methyl-7H-pyrrolo[2,3-d]pyrimidin-4-amine] |
| 0.0013 µM | 0.01 µM | 0.0145 µM | 0.0721 µM | 0.0293 µM | – | Cc1nc(NCc2ncccc2C(F)(F)F)c2c(-c3ccnc(N)c3)c[nH]c2n1 [Example 78, 5-(2-aminopyridin-4-yl)-2-methyl-N-{[3-(trifluoromethyl)pyridin-2-yl]methyl}-7H-pyrrolo[2,3-d]pyrimidin-4-amine] |
| 0.0077 µM | 0.019 µM | 0.0112 µM | 0.155 µM | 0.0378 µM | – | Cc1nc(NCc2cccc(Cl)c2C)c2c(-c3ccnc(N)c3)c[nH]c2n1 [Example 94, 5-(2-aminopyridin-4-yl)-N-(3-chloro-2-methylbenzyl)-2-methyl-7H-pyrrolo[2,3-d]pyrimidin-4-amine] |
| 0.0023 µM | 0.009 µM | 0.0315 µM | 0.0119 µM | 0.0151 µM | – | Cc1nc(N2CCc3ccccc3C2)c2c(-c3ccnc(N)c3)c[nH]c2n1 [Example 96, 4-[4-(3,4-dihydroisoquinolin-2(1H)-yl)-2-methyl-7H-pyrrolo[2,3-d]pyrimidin-5-yl]pyridin-2-amine] |
| 0.0086 µM | 0.029 µM | 0.0293 µM | 0.192 µM | 0.0549 µM | – | Cc1nc(NC2Cc3ccccc3C2)c2c(-c3ccnc(N)c3)c[nH]c2n1 [Example 99, 5-(2-aminopyridin-4-yl)-N-(2,3-dihydro-1H-inden-2-yl)-2-methyl-7H-pyrrolo[2,3-d]pyrimidin-4-amine] |
| 0.0091 µM | 0.028 µM | 0.0252 µM | 0.15 µM | 0.122 µM | – | Cc1nc(-c2cc3ccccc3[nH]2)c2c(-c3ccnc(N)c3)c[nH]c2n1 [Example 161] |
| 0.0045 µM | 0.013 µM | 0.0051 µM | 0.0497 µM | 0.0334 µM | – | Cc1nc(-c2ccc3c(c2)OCCO3)c2c(-c3ccnc(N)c3)c[nH]c2n1 [Example 173] |
| 0.0052 µM | 0.013 µM | 0.0141 µM | 0.0782 µM | 0.18 µM | – | Cc1nc(CN2CCc3ccccc32)c2c(-c3ccnc(N)c3)c[nH]c2n1 [Example 178, 4-[4-(2,3-dihydro-1H-indol-1-ylmethyl)-2-methyl-7H-pyrrolo[2,3-d]pyrimidin-5-yl]pyridin-2-amine] |
| 0.0048 µM | 0.011 µM | 0.0158 µM | 0.012 µM | 0.0631 µM | – | Cc1nc(-c2cc3cccc(Cl)c3s2)c2c(-c3ccnc(N)c3)c[nH]c2n1 [Example 185] |
| – | – | 0.0133 µM | – | 0.0238 µM | – | Cc1nc(NCc2c(F)cccc2F)c2c(-c3ccnc(N)n3)c[nH]c2n1 [Example 206, 5-(2-aminopyrimidin-4-yl)-N-(2,6-difluorobenzyl)-2-methyl-7H-pyrrolo[2,3-d]pyrimidin-4-amine] |
| 0.0026 µM | 0.008 µM | 0.0092 µM | 0.057 µM | 0.0172 µM | – | Cc1cc(NCc2c(F)cccc2F)c2c(-c3ccnc(N)c3)c[nH]c2n1 [Example 213, 3-(2-aminopyridin-4-yl)-N-(2,6-difluorobenzyl)-6-methyl-1H-pyrrolo[2,3-b]pyridin-4-amine] |

The remaining lines, values behind:

| Structure (SMILES) | IC50 (DYRK1A) | IC50 [1] | IC50 (DYRK1B) | IC50 (phospho-Ser520-DYRK1A) | IC50 (CLK1) | IC50 (CDK9) |
| --- | --- | --- | --- | --- | --- | --- |
| Cc1nc(OCc2ccc(C#N)cc2)c2c(-c3ccnc(N)c3)c[nH]c2n1 [Example 25, 4-({[5-(2-aminopyridin-4-yl)-2-methyl-7H-pyrrolo[2,3-d]pyrimidin-4-yl]oxy}methyl)benzonitrile] | 0.0031 µM | 0.012 µM | 0.0079 µM | 0.036 µM | 0.0177 µM | – |
| Cc1nc(NCc2c(Cl)cccc2Cl)c2c(-c3ccnc(N)c3)c[nH]c2n1 [Example 61, 5-(2-aminopyridin-4-yl)-N-(2,6-dichlolorobenzyl)-2-methyl-7H-pyrrolo[2,3-d]pyrimidin-4-amine] | 0.0062 µM | 0.01 µM | 0.0029 µM | 0.0115 µM | 0.0129 µM | – |
| Cc1nc(N2CCC3CCCCC3C2)c2c(-c3ccnc(N)c3)c[nH]c2n1 (stereo not shown) [Example 104, 4-[2-methyl-4-(octahydroisoquinolin-2(1H)-yl)-7H-pyrrolo[2,3-d]pyrimidin-5-yl]pyridin-2-amine] | 0.0081 µM | 0.015 µM | 0.0167 µM | 0.105 µM | 0.0225 µM | – |
| Cc1nc(N2CCc3sccc3C2)c2c(-c3ccnc(N)c3)c[nH]c2n1 [Example 108, 4-[4-(6,7-dihydrothieno[3,2-c]pyridin-5(4H)-yl)-2-methyl-7H-pyrrolo[2,3-d]pyrimidin-5-yl]pyridin-2-amine] | 0.0027 µM | 0.009 µM | 0.0092 µM | 0.0491 µM | 0.0283 µM | – |
| Cc1nc(NCc2c(F)cccc2F)c2c(-c3cc(N)nc(N)c3)c[nH]c2n1 [Example 115, 4-{4-[(2,6-difluorobenzyl)amino]-2-methyl-7H-pyrrolo[2,3-d]pyrimidin-5-yl}pyridine-2,6-diamine] | 0.0031 µM | 0.005 µM | 0.0094 µM | 0.0185 µM | 0.0172 µM | – |
| COc1ccccc1[C@H](C)Nc1nc(C)nc2[nH]cc(-c3cc(N)nc(N)c3)c12 [Example 117, 4-(4-{[(1S}-1-(2-methoxyphenyl)ethyl]amino}-2-methyl-7H-pyrrolo[2,3-d]pyrimidin-5-yl)pyridine-2,6-diamine] | 0.0059 µM | 0.01 µM | 0.0093 µM | 0.0377 µM | 0.0195 µM | – |
| Cc1nc(NCc2c(F)cncc2F)c2c(-c3ccnc(N)c3)c[nH]c2n1 [Example 119, 5-(2-aminopyridin-4-yl)-N-[(3,5-difluoropyridin-4-yl)methyl]-2-methyl-7H-pyrrolo[2,3-d]pyrimidin-4-amine] | 0.0066 µM | 0.02 µM | 0.0192 µM | 0.232 µM | 0.0828 µM | – |
| Cc1nc(N2C[C@@H](C)O[C@@H](C)C2)c2c(-c3ccnc(N)c3)c[nH]c2n1 [Example 125, 4-{4-[(2R,6S)-2,6-dimethylmorpholin-4-yl]-2-methyl-7H-pyrrolo[2,3-d]pyrimidin-5-yl}pyridin-2-amine + 4-{4-[(2S,6R)-2,6-dimethylmorpholin-4-yl]-2-methyl-7H-pyrrolo[2,3-d]pyrimidin-5-yl}pyridin-2-amine] | 0.053 µM | 0.073 µM | – | – | – | 3.72 µM |
| C#Cc1nc(NCc2c(F)cccc2F)c2c(-c3ccnc(N)c3)c[nH]c2n1 [Example 148, 5-(2-aminopyridin-4-yl)-N-(2,6-difluorobenzyl)-2-ethynyl-7H-pyrrolo[2,3-d]pyrimidin-4-amine] | 0.0042 µM | 0.007 µM | 0.0144 µM | 0.0335 µM | 0.0303 µM | – |
| CC(C)c1nc(NCc2c(F)cccc2F)c2c(-c3ccnc(N)c3)c[nH]c2n1 [Example 150, 5-(2-aminopyridin-4-yl)-N-(2,6-difluorobenzyl)-2-(propan-2-yl)-7H-pyrrolo[2,3-d]pyrimidin-4-amine] | 0.0034 µM | 0.74 µM | – | – | – | 1.17 µM |
| Cc1nc(-c2cc3ccccc3n2C)c2c(-c3ccnc(N)c3)c[nH]c2n1 [Example 186] | 0.0053 µM | 0.017 µM | 0.0211 µM | 0.0855 µM | 0.0927 µM | – |
| Nc1cc(-c2c[nH]c3nc(C#CC4CC4)cc(NCc4c(F)cccc4F)c23)ccn1 [Example 216, 3-(2-aminopyridin-4-yl)-6-(cyclopropylethynyl)-N-(2,6-difluorobenzyl)-1H-pyrrolo[2,3-b]pyridin-4-amine] | 0.0145 µM | 0.021 µM | 0.0219 µM | 0.0807 µM | 0.121 µM | – |
| Cc1cc(-c2ccc3c(c2)OCCO3)c2c(-c3ccnc(N)c3)c[nH]c2n1 [Example 217, 4-[4-(2,3-dihydro-1,4-benzodioxin-6-yl)-6-methyl-1H-pyrrolo[2,3-b]pyridin-3-yl]pyridin-2-amine] | 0.0027 µM | 0.01 µM | 0.0077 µM | 0.0385 µM | 0.0261 µM | – |
